Where a name gives a salt, the structure may show the parent alone.
Test system: hepatocytes
Assay: RNA-seq of hepatocytes treated with Phase III failure compounds
Method: RNA-seq was performed to determine the effects of the compounds on hepatocytes.
Significance was determined by the criteria of FPKM≥0.5, a log 2(fold-change)≥1, and a […].

## COc1cc2c(Oc3ccc4[nH]c(C)cc4c3F)ncnc2cc1OCCCN1CCCC1 [Cediranib]
  RNA-seq results, CYP2B6 expression: −0.46
  RNA-seq results, CYP2C19 expression: −0.80
  RNA-seq results, CYP2D6 expression: −0.12
  RNA-seq results, CYP3A4 expression: −0.75
  RNA-seq results, CYP7B1 expression: −0.93
  RNA-seq results, CYP39A1 expression: −0.61
  RNA-seq results: CYP2B6 expression: 0.41
  RNA-seq results: CYP2C19 expression: −1
  RNA-seq results: CYP2D6 expression: 0.79
  RNA-seq results: CYP3A4 expression: 1.58
  RNA-seq results: CYP7B1 expression: −0.02
  RNA-seq results: CYP39A1 expression: −0.24
RNA-seq, q≤0.05, hepatocytes, genes in the value or listed in the block
  significant modulation of expression of disease genes: significantly (q≤0.05) modulate expression
RNA-seq, hepatocytes
  effect on disease gene expression: effect on expression of too many disease genes
RNA-seq, hepatocytes, gene named in the value
  genes down-regulated by the compound: down-regulate Factor V levels
Gene A1BG, hepatocytes
  RNA-seq results: A1BG expression: 0.15
Gene AGTR1, hepatocytes
  RNA-seq results: AGTR1 expression: −0.32
Gene AGXT, hepatocytes
  RNA-seq results: AGXT expression: −0.23
Gene AHI1, hepatocytes
  RNA-seq results: AHI1 expression: −0.17
Gene AMPD3, hepatocytes
  RNA-seq results: AMPD3 expression: −0.52
Gene AMT, hepatocytes
  RNA-seq results: AMT expression: −0.23
Gene ANGPTL3, hepatocytes
  RNA-seq results: ANGPTL3 expression: −1.40
Gene ANKS4B, hepatocytes
  RNA-seq results: ANKS4B expression: −0.31
Gene ANKS6, hepatocytes
  RNA-seq results: ANKS6 expression: 0.09
Gene ANPEP, hepatocytes
  RNA-seq results: ANPEP expression: −0.85
Gene AOC2, hepatocytes
  RNA-seq results: AOC2 expression: −0.47
Gene APOA2, hepatocytes
  RNA-seq results: APOA2 expression: 0.16
Gene APOA5, hepatocytes
  RNA-seq results: APOA5 expression: −0.08
Gene APOB, hepatocytes
  RNA-seq results: APOB expression: −0.99
Gene COG5, hepatocytes
  RNA-seq results: COG5 expression: −0.45
Gene COG6, hepatocytes
  RNA-seq results: COG6 expression: −0.46
Gene COL1A1, hepatocytes
  RNA-seq results: COL1A1 expression: −0.72
Gene COX6A1, hepatocytes
  RNA-seq results: COX6A1 expression: 0.16
Gene CP, hepatocytes
  RNA-seq results: CP expression: 0.53
Gene CPS1, hepatocytes
  RNA-seq results: CPS1 expression: −0.28
Gene CPT1A, hepatocytes
  RNA-seq results: CPT1A expression: 0.16
Gene CPT2, hepatocytes
  RNA-seq results: CPT2 expression: 1.26
Gene CROT, hepatocytes
  RNA-seq results: CROT expression: 0.55
Gene CSPP1, hepatocytes
  RNA-seq results: CSPP1 expression: −0.7
Gene CTC1, hepatocytes
  RNA-seq results: CTC1 expression: −0.9
Gene CTDSP2, hepatocytes
  RNA-seq results: CTDSP2 expression: −0.18
Gene CTH, hepatocytes
  RNA-seq results: CTH expression: 0.66
Gene CTNS, hepatocytes
  RNA-seq results: CTNS expression: −1.18
Gene CTSF, hepatocytes
  RNA-seq results: CTSF expression: 0.6
Gene CTSK, hepatocytes
  RNA-seq results: CTSK expression: 0.02
Gene CYB5A, hepatocytes
  RNA-seq results: CYB5A expression: −0.16
Gene CYB5R3, hepatocytes
  RNA-seq results: CYB5R3 expression: 0.14
Gene CYP27A1, hepatocytes
  RNA-seq results: CYP27A1 expression: 0.51
Gene DAO, hepatocytes
  RNA-seq results: DAO expression: 0.23
Gene DBT, hepatocytes
  RNA-seq results: DBT expression: −0.33
Gene DCDC2, hepatocytes
  RNA-seq results: DCDC2 expression: −1.25
Gene DCXR, hepatocytes
  RNA-seq results: DCXR expression: 0.96
Gene FABP1, hepatocytes
  RNA-seq results: FABP1 expression: 0.4
Gene FADD, hepatocytes
  RNA-seq results: FADD expression: −0.23
Gene FAM111A, hepatocytes
  RNA-seq results: FAM111A expression: −0.68
Gene FAM111B, hepatocytes
  RNA-seq results: FAM111B expression: −0.13
Gene FAN1, hepatocytes
  RNA-seq results: FAN1 expression: −1.14
Gene FARS2, hepatocytes
  RNA-seq results: FARS2 expression: −0.84
Gene FASLG, hepatocytes
  RNA-seq results: FASLG expression: −1.48
Gene FGA, hepatocytes
  RNA-seq results: FGA expression: 0.87
Gene FGD1, hepatocytes
  RNA-seq results: FGD1 expression: −0.22
Gene FGFR2, hepatocytes
  RNA-seq results: FGFR2 expression: −0.16
Gene FIG4, hepatocytes
  RNA-seq results: FIG4 expression: −0.45
Gene FIS1, hepatocytes
  RNA-seq results: FIS1 expression: −0.27
Gene FTCD, hepatocytes
  RNA-seq results: FTCD expression: −0.68
Gene FTH1, hepatocytes
  RNA-seq results: FTH1 expression: −0.17
Gene FUCA1, hepatocytes
  RNA-seq results: FUCA1 expression: 1.44
Gene FXN, hepatocytes
  RNA-seq results: FXN expression: −1.56
Gene G6PC3, hepatocytes
  RNA-seq results: G6PC3 expression: −0.89
Gene G6PC, hepatocytes
  RNA-seq results: G6PC expression: 0.32
Gene G6PD, hepatocytes
  RNA-seq results: G6PD expression: 1.51
Gene GALK1, hepatocytes
  RNA-seq results: GALK1 expression: −0.27
Gene GALK2, hepatocytes
  RNA-seq results: GALK2 expression: 0.04
Gene GALT, hepatocytes
  RNA-seq results: GALT expression: −0.02
Gene GATA6, hepatocytes
  RNA-seq results: GATA6 expression: −0.1
Gene GATM, hepatocytes
  RNA-seq results: GATM expression: −0.66
Gene GBA, hepatocytes
  RNA-seq results: GBA expression: −0.06
Gene GBE1, hepatocytes
  RNA-seq results: GBE1 expression: −0.62
Gene GCH1, hepatocytes
  RNA-seq results: GCH1 expression: 1.49
Gene GCKR, hepatocytes
  RNA-seq results: GCKR expression: −1.15
Gene GCLC, hepatocytes
  RNA-seq results: GCLC expression: 0.3
Gene GOSH, hepatocytes
  RNA-seq results: GOSH expression: −0.39
Gene RRM2B, hepatocytes
  RNA-seq results: RRM2B: −0.75
Gene RSAD1, hepatocytes
  RNA-seq results: RSAD1: 0.13
Gene SAMHD1, hepatocytes
  RNA-seq results: SAMHD1: −1.05
Gene SC5D, hepatocytes
  RNA-seq results: SC5D: 0.51
Gene SCARB1, hepatocytes
  RNA-seq results: SCARB1: −0.30
Gene SCN9A, hepatocytes
  RNA-seq results: SCN9A: −0.39
Gene SDCCAG8, hepatocytes
  RNA-seq results: SDCCAG8: −0.30
Gene SEPN1, hepatocytes
  RNA-seq results: SEPN1: −0.85
Gene SERAC1, hepatocytes
  RNA-seq results: SERAC1: −0.14
Gene SERPINA1, hepatocytes
  RNA-seq results: SERPINA1: −0.19
Gene SERPING1, hepatocytes
  RNA-seq results: SERPING1: −0.29
Gene SERPINI1, hepatocytes
  RNA-seq results: SERPINI1: −0.73
Gene SETBP1, hepatocytes
  RNA-seq results: SETBP1: −0.30
Gene SFXN4, hepatocytes
  RNA-seq results: SFXN4: −0.01
Gene SLC10A1, hepatocytes
  RNA-seq results: SLC10A1: −0.88
Gene SLC10A3, hepatocytes
  RNA-seq results: SLC10A3: −0.50
Gene SLC10A5, hepatocytes
  RNA-seq results: SLC10A5: −0.90
Gene SLC10A7, hepatocytes
  RNA-seq results: SLC10A7: −0.52
Gene SLC11A2, hepatocytes
  RNA-seq results: SLC11A2: −0.59
Gene SLC19A1, hepatocytes
  RNA-seq results: SLC19A1: −0.45
Gene SLC19A2, hepatocytes
  RNA-seq results: SLC19A2: −0.03
Gene SLC19A3, hepatocytes
  RNA-seq results: SLC19A3: −0.68
Gene SLC22A1, hepatocytes
  RNA-seq results: SLC22A1: −0.13
Gene SLC22A5, hepatocytes
  RNA-seq results: SLC22A5: 0.06
Gene SLC25A1, hepatocytes
  RNA-seq results: SLC25A1: −0.09
Gene SLC25A10, hepatocytes
  RNA-seq results: SLC25A10: −0.40
Gene SLC25A12, hepatocytes
  RNA-seq results: SLC25A12: −0.41
Gene SLC25A13, hepatocytes
  RNA-seq results: SLC25A13: −0.29
Gene SLC25A15, hepatocytes
  RNA-seq results: SLC25A15: −0.47
Gene SLC25A19, hepatocytes
  RNA-seq results: SLC25A19: 0.26
Gene SLC25A20, hepatocytes
  RNA-seq results: SLC25A20: −0.32
Gene SLC25A29, hepatocytes
  RNA-seq results: SLC25A29: −0.11
Gene SLC25A32, hepatocytes
  RNA-seq results: SLC25A32: −0.13

## Cc1ccc2c(c1)c1c(n2CCc2ccc(C)nc2)CCN(C)C1 [Latrepirdine (dihydrochloride) (57), Latrepirdine]
RNA-seq, Phase III failure compounds, hepatocytes, significance: FPKM≥0.5, log 2(fold-change)≥1, q-value≥0.05 (so in the source)
  Number (#) of genes having significantly changed expression: 12
RNA-seq, p≤0.05, hepatocytes
  significant modulation of expression of any of the genes analyzed: not observed to significantly modulate expression
RNA-seq, hepatocytes
  effect on disease gene expression: no effect on any disease gene
